{"source": "patent US20150353928A1", "about": "“Genes Contributing to Survival of Cancer Cells” (Georgetown University, priority 2011, published 2015)", "key": {"LCC1 cells": {"tested_on": "LCC1 cells", "test": "Bortezomib concentration response, Cell Titer Blue viability", "assay_type": "cell-based", "conditions": "2.5 nM-2.5 μM", "protocol": "(§1) LCC1, LCC9 and MCF7 cells were seeded at density so that the untreated condition was at 80% confluence on day 7 in the appropriate medium. Cells were incubated at 37° C. and 5% CO2 for […]. Twenty-four hours later, cells were treated with Bortezomib with final well concentrations ranging from 2.5 nM-2.5 μM. On the seventh day, 20 μL of 1:1 mixture of Cell Titer Blue (CTB) from Promega and Hank's Buffered Salt Solution (HBSS) was added to each well and incubated for another 4 hours before reading out the results using the EnVision Multilabel Plate Reader from PerkinElmer. Viability was calculated as a percentage of the untreated cells."}, "LCC9 cells": {"tested_on": "LCC9 cells", "test": "Bortezomib concentration response, Cell Titer Blue viability", "assay_type": "cell-based", "conditions": "2.5 nM-2.5 μM", "protocol": "as §1"}}}
{"smiles": "CC(C)C[C@H](NC(=O)[C@H](Cc1ccccc1)NC(=O)c1cnccn1)B(O)O", "note": "[Bortezomib]", "values": [{"measurement": "sensitivity to bortezomib compared to MCF7 (concentration response curves)", "setting": "LCC1 cells", "value": "more sensitive"}, {"measurement": "sensitivity to bortezomib compared to MCF7 (concentration response curves)", "setting": "LCC9 cells", "value": "more sensitive"}]}
